Here are results for 18 compounds from patent publication US20230295200A1 (REGENTS OF THE UNIVERSITY OF MICHIGAN, priority 2022, published 2023).

The structures appear in SMILES notation. Some results are limits rather than exact numbers.

The test addresses T1, STAT6 protein (Homo sapiens, UniProt P42226).
T1 sequence (P42226 1-847): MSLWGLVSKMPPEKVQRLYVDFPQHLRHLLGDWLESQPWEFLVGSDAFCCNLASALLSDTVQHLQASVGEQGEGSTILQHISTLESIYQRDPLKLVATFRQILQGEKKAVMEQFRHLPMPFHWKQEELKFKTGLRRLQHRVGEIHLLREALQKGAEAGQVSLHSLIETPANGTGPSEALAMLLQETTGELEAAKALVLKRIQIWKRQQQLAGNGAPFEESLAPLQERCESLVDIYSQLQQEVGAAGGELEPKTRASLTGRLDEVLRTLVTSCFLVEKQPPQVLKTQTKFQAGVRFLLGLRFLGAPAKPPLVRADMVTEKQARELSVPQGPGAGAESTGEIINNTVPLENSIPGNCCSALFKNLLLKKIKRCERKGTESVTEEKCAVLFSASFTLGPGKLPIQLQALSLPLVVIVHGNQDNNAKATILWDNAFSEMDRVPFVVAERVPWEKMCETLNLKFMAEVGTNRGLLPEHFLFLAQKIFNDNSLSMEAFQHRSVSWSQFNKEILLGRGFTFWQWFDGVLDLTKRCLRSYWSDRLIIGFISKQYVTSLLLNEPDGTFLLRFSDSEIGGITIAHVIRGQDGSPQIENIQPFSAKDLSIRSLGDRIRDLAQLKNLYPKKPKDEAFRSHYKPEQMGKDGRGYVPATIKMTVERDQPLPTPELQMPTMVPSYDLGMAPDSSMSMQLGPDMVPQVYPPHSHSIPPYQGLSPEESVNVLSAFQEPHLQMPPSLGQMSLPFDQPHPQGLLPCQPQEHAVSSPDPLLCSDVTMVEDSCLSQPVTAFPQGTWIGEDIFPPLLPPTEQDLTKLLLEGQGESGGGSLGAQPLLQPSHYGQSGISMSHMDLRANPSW
The test is described as follows: Fluorescence polarization (FP) binding assay, STAT6. Conditions: FP competition, 5 nM fluorescein-labeled tracer, 200 nM protein, PBS pH7.4; read-out: Binding STAT6. The gist of the method: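 Fluorescence polarization is read after STAT5 or STAT6 protein (200 nM) and a fluorescein-labeled tracer (5 nM) equilibrate for 1 h at room temperature in DTT-containing PBS pH 7.4 with BGG and Tween-20. Inhibition constants are obtained by nonlinear curve fitting.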
Take `CC(=O)N1CC[C@H]2CC[C@@H](C(=O)N(C)c3ccccc3)N2C(=O)[C@@H](NC(=O)c2cc3cc(C(F)(F)P(=O)(O)O)ccc3[nH]2)C1` [Compound 360, ((2-(((5S,8S,10aR)-3-acetyl-8-(methyl(phenyl)carbamoyl)-6-oxodecahydropyrrolo[1,2-a][1,5]diazocin-5-yl)carbamoyl)-1H-indol-5-yl)difluoromethyl)phosphonic acid]: the Ki is more than 10 µM.

As for `CC(=O)N1CC[C@H]2CC[C@@H](C(=O)Nc3ccccc3)N2C(=O)[C@@H](NC(=O)c2cc3cc(C(F)(F)P(=O)(O)O)ccc3[nH]2)C1` [Compound 361, ((2-(((5S,8S,10aR)-3-acetyl-6-oxo-8-(phenylcarbamoyl)decahydropyrrolo [1,2-a][1,5]diazocin-5-yl)carbamoyl)-1H-indol-5-yl)difluoromethyl)phosphonic acid], the Ki was more than 10 µM.

As for `CC(=O)N1CC[C@H]2CC[C@@H](C(=O)N(c3ccccc3)c3ccccc3)N2C(=O)[C@@H](NC(=O)c2cc3cc(C(F)(F)P(=O)(O)O)ccc3[nH]2)C1` [Compound 362, ((2-(((5S,8S,10aR)-3-acetyl-8-(diphenylcarbamoyl)-6-oxodecahydropyrrolo[1,2-a][1,5]diazocin-5-yl)carbamoyl)-1H-indol-5-yl)difluoromethyl)phosphonic acid], the Ki was in the range of 1 to 10 µM.

As for `O=C(N[C@H]1CCC[C@H]2CC[C@@H](C(=O)N3CCc4ccccc4C3)N2C1=O)c1cc2cc(C(F)(F)P(=O)(O)O)ccc2[nH]1` [Compound 363, (difluoro(2-(((3S,6S,9aS)-5-oxo-3-(1,2,3,4-tetrahydroisoquinoline-2-carbonyl)octahydro-1H-pyrrolo[1,2-a]azepin-6-yl)carbamoyl)-1H-indol-5-yl)methyl)phosphonic acid], the Ki was more than 10 µM.

In the case of `CC(C)C(=O)N1CC[C@H]2CC[C@@H](C(=O)N3CCc4ccccc4C3)N2C(=O)[C@@H](NC(=O)c2cc3cc(C(F)(F)P(=O)(O)O)ccc3[nH]2)C1` [Compound 364, (difluoro(2-(((5S,8S,10aR)-3-isobutyryl-6-oxo-8-(1,2,3,4-tetrahydroisoquinoline-2-carbonyl)decahydropyrrolo[1,2-a][1,5]diazocin-5-yl)carbamoyl)-1H-indol-5-yl)methyl)phosphonic acid], the Ki was more than 10 µM.

`CN1CCC(C(=O)N2CC[C@H]3CC[C@@H](C(=O)N4CCc5ccccc5C4)N3C(=O)[C@@H](NC(=O)c3cc4cc(C(F)(F)P(=O)(O)O)ccc4[nH]3)C2)CC1` [Compound 365, (difluoro(2-(((5S,8S,10aR)-3-(1-methylpiperidine-4-carbonyl)-6-oxo-8-(1,2,3,4-tetrahydroisoquinoline-2-carbonyl)decahydropyrrolo[1,2-a][1,5]diazocin-5-yl)carbamoyl)-1H-indol-5-yl)methyl)phosphonic acid]: the Ki is more than 10 µM.

As to `CC(=O)N1CC[C@H]2CC[C@@H](C(=O)N3CCc4cc(Cl)ccc4C3)N2C(=O)[C@@H](NC(=O)c2cc3cc(C(F)(F)P(=O)(O)O)ccc3[nH]2)C1` [Compound 366, ((2-(((5S,8S,10aR)-3-acetyl-8-(6-chloro-1,2,3,4-tetrahydroisoquinoline-2-carbonyl)-6-oxodecahydropyrrolo[1,2-a][1,5]diazocin-5-yl)carbamoyl)-1H-indol-5-yl)difluoromethyl)phosphonic acid], the Ki was more than 10 µM.

Turning to `CC(=O)N1CC[C@H]2CC[C@@H](C(=O)N3CCOCC3)N2C(=O)[C@@H](NC(=O)c2cc3cc(C(F)(F)P(=O)(O)O)ccc3[nH]2)C1` [Compound 367, ((2-(((5S,8S,10aR)-3-acetyl-8-(morpholine-4-carbonyl)-6-oxodecahydropyrrolo[1,2-a][1,5]diazocin-5-yl)carbamoyl)-1H-indol-5-yl)difluoromethyl)phosphonic acid], the Ki is more than 10 µM.

With `CC(=O)N1CC[C@H]2CC[C@@H](C(=O)N3CCCOCC3)N2C(=O)[C@@H](NC(=O)c2cc3cc(C(F)(F)P(=O)(O)O)ccc3[nH]2)C1` [Compound 368, ((2-(((5S,8S,10aR)-3-acetyl-8-(1,4-oxazepane-4-carbonyl)-6-oxodecahydropyrrolo[1,2-a][1,5]diazocin-5-yl)carbamoyl)-1H-indol-5-yl)difluoromethyl)phosphonic acid], the Ki was more than 10 µM.

Consider `CC(=O)N1CC[C@H]2CC[C@@H](C(=O)N3CCCc4ccccc4C3)N2C(=O)[C@@H](NC(=O)c2cc3cc(C(F)(F)P(=O)(O)O)ccc3[nH]2)C1` [Compound 369, ((2-(((5S,8S,10aR)-3-acetyl-6-oxo-8-(2,3,4,5-tetrahydro-1H-benzo[c]azepine-2-carbonyl)decahydropyrrolo[1,2-a][1,5]diazocin-5-yl)carbamoyl)-1H-indol-5-yl)difluoromethyl)phosphonic acid], for which the Ki was more than 10 µM.

Consider `CC(=O)N1CC[C@H]2CC[C@@H](C(=O)N(c3ccccc3)c3ccc(Br)cc3)N2C(=O)[C@@H](NC(=O)c2cc3cc(C(F)(F)P(=O)(O)O)ccc3[nH]2)C1` [Compound 370, ((2-(((5S,8S,10aR)-3-acetyl-8-((4-bromophenyl)(phenyl)carbamoyl)-6-oxodecahydropyrrolo[1,2-a][1,5]diazocin-5-yl)carbamoyl)-1H-indol-5-yl)difluoromethyl)phosphonic acid], for which the Ki was 1 to 10 µM.

Regarding `CC(=O)N1CC[C@H]2CC[C@@H](C(=O)N(c3ccc(Cl)cc3)C3CCCCC3)N2C(=O)[C@@H](NC(=O)c2cc3cc(C(F)(F)P(=O)(O)O)ccc3[nH]2)C1` [Compound 371, ((2-(((5S,8S,10aR)-3-acetyl-8-((4-chlorophenyl)(cyclohexyl)carbamoyl)-6-oxodecahydropyrrolo[1,2-a][1,5]diazocin-5-yl)carbamoyl)-1H-indol-5-yl)difluoromethyl)phosphonic acid], the Ki was more than 10 µM.

For the compound `CC(=O)N1CC[C@H]2CC[C@@H](C(=O)N3CCOc4ccccc43)N2C(=O)[C@@H](NC(=O)c2cc3cc(C(F)(F)P(=O)(O)O)ccc3[nH]2)C1` [Compound 372, ((2-(((5S,8S,10aR)-3-acetyl-8-(3,4-dihydro-2H-benzo[b][1,4]oxazine-4-carbonyl)-6-oxodecahydropyrrolo[1,2-a][1,5]diazocin-5-yl)carbamoyl)-1H-indol-5-yl)difluoromethyl)phosphonic acid], the Ki was more than 10 µM.

As for `CC(=O)N1CC[C@H]2CC[C@@H](C(=O)N3CCc4cc(I)ccc4C3)N2C(=O)[C@@H](NC(=O)c2cc3cc(C(F)(F)P(=O)(O)O)ccc3[nH]2)C1` [Compound 373, ((2-(((5S,8S,10aR)-3-acetyl-8-(6-iodo-1,2,3,4-tetrahydroisoquinoline-2-carbonyl)-6-oxodecahydropyrrolo[1,2-a][1,5]diazocin-5-yl)carbamoyl)-1H-indol-5-yl)difluoromethyl)phosphonic acid], the Ki is 1 to 10 µM.

Turning to `CC(=O)N1CC[C@H]2CC[C@@H](C(=O)N3CCc4ccccc4CC3)N2C(=O)[C@@H](NC(=O)c2cc3cc(C(F)(F)P(=O)(O)O)ccc3[nH]2)C1` [Compound 374, ((2-(((5S,8S,10aR)-3-acetyl-6-oxo-8-(2,3,4,5-tetrahydro-1H-benzo[d]azepine-3-carbonyl)decahydropyrrolo[1,2-a][1,5]diazocin-5-yl)carbamoyl)-1H-indol-5-yl)difluoromethyl)phosphonic acid], the Ki was more than 10 µM.

Regarding `CC(=O)N1CC[C@H]2CC[C@@H](C(=O)N(C)c3ccc(Cl)cc3)N2C(=O)[C@@H](NC(=O)c2cc3cc(C(F)(F)P(=O)(O)O)ccc3[nH]2)C1` [Compound 375, ((2-(((5S,8S,10aR)-3-acetyl-8-((4-chlorophenyl)(methyl)carbamoyl)-6-oxodecahydropyrrolo[1,2-a][1,5]diazocin-5-yl)carbamoyl)-1H-indol-5-yl)difluoromethyl)phosphonic acid], the Ki is more than 10 µM.

In the case of `CC(=O)N1CC[C@H]2CC[C@@H](C(=O)N(C)c3ccc(F)cc3)N2C(=O)[C@@H](NC(=O)c2cc3cc(C(F)(F)P(=O)(O)O)ccc3[nH]2)C1` [Compound 376, ((2-(((5S,8S,10aR)-3-acetyl-8-((4-fluorophenyl)(methyl)carbamoyl)-6-oxodecahydropyrrolo[1,2-a][1,5]diazocin-5-yl)carbamoyl)-1H-indol-5-yl)difluoromethyl)phosphonic acid], the Ki is more than 10 µM.

Turning to `CC(=O)N1CC[C@H]2CC[C@@H](C(=O)N3Cc4ccc(Cl)cc4C3)N2C(=O)[C@@H](NC(=O)c2cc3cc(C(F)(F)P(=O)(O)O)ccc3[nH]2)C1` [Compound 377, ((2-(((5,8S,10aR)-3-acetyl-8-(5-chloroisoindoline-2-carbonyl)-6-oxodecahydropyrrolo[1,2-a][1,5]diazocin-5-yl)carbamoyl)-1H-indol-5-yl)difluoromethyl)phosphonic acid], the Ki is more than 10 µM.
